According to ChEMBL document CHEMBL5728688, “Substituted pyridines as TYK2 inhibitors” (2021):

Molecular target: Non-receptor tyrosine-protein kinase TYK2 (Homo sapiens, UniProt P29597)
Test: TYK2 JH2 Domain Binding Assay: DiscoverX's KINOMEscan™ is a popular platform for kinase profiling, frequently used in academic and industry witnessed by publications, therefore we selected this platform as a primary cell-free screening assay to determine the relative binding potency and guide chemistry SAR.Developed by DiscoverX, KINOMEscan™ employs proprietary active-site dependent competition binding assays to determine how compounds bind to kinases. KINOMEscan™ is based on a competition binding assay that quantitatively measures the ability of a compound to compete with an immobilized, active site directed ligand. The assay is performed by combining three components: DNA-tagged kinase; immobilized ligand; and a test compound. […] The liganded beads were blocked with excess biotin and washed with blocking buffer (SeaBlock (Pierce), 1% BSA, 0.05% Tween 20, 1 mM DTT) to remove unbound ligand and to reduce non-specific binding. […] Test compounds were prepared as 111× stocks in 100% DMSO. All test compounds were shipped to DiscoverX in DMSO with concentration of 10 mM. […] Each compound was tested in duplicate. […] The compounds were then diluted directly into the assays such that the final concentration of DMSO was 0.9%. All reactions performed in polypropylene 384-well plate. Each was a final volume of 0.02 ml. […] […]

Non-receptor tyrosine-protein kinase TYK2, sequence (P29597 whole entry, the tested form may be a part): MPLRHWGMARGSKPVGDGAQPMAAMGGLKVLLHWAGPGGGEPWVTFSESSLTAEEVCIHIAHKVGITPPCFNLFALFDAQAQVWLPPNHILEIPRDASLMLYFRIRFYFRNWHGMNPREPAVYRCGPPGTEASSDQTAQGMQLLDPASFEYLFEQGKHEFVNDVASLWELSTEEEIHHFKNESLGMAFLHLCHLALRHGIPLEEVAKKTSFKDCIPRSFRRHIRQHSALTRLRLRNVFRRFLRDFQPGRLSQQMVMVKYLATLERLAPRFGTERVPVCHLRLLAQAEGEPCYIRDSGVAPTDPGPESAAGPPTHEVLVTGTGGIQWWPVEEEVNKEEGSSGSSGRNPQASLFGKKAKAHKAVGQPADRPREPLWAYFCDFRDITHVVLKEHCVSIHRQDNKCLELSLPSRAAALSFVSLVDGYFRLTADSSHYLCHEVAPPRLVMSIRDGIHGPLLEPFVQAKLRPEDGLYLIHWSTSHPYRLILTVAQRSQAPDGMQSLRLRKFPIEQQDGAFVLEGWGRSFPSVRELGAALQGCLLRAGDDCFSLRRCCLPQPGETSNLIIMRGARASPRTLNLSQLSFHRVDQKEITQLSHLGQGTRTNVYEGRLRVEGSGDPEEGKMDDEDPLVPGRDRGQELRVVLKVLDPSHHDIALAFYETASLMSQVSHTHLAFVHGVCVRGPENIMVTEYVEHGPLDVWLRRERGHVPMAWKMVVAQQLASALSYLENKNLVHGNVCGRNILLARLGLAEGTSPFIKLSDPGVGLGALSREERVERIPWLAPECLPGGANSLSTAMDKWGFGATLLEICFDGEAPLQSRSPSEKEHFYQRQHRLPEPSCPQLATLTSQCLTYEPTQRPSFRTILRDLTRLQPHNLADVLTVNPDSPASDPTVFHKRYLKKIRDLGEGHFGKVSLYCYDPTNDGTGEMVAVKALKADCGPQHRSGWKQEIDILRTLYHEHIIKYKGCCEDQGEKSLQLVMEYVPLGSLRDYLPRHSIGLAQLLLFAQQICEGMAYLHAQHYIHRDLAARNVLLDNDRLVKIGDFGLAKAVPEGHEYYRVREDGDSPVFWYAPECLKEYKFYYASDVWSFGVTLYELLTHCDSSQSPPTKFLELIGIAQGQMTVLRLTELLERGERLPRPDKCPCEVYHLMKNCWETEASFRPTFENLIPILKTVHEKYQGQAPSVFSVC

Kd: < 1 nM
SMILES: CNC(=O)c1nnc(N2CCC(C)(C)C2=O)cc1Nc1cccc(-c2ncn(C)n2)c1OC
